Calls of active or inactive are those of the source. No cut-off for these calls is given here.

Data set [1] can be described thus: Ratio of IC50 for human ERG to IC50 for human NCI-H2228 cells.
In data set [2] the test system is NCI-H2228. Put plainly: Antiproliferative activity against human NCI-H2228 cells after 96 hrs by CellTiter-Glo assay. The format is functional, cell-based. The settings on record: NCI-H2228, 96 h.
Data set [3] is described as follows: Antiproliferative activity against human KARPAS299 cells after 96 hrs by CellTiter-Glo assay. Type of data set: functional, cell-based. As to conditions: KARPAS-299, 96 h.
Data set [4] concerns the target ALK tyrosine kinase receptor (Homo sapiens, UniProt Q9UM73). Put plainly: Inhibition of recombinant human wild type ALK using tyrosine kinase substrate-biotin after 30 mins by HTRF assay.
In data set [5] the target is ALK tyrosine kinase receptor (Homo sapiens, UniProt Q9UM73, L1196M). Put plainly: Inhibition of recombinant human ALK L1196M mutant using tyrosine kinase substrate-biotin after 30 mins by HTRF assay.
ALK tyrosine kinase receptor (Homo sapiens, UniProt Q9UM73, L1196M), sequence (Q9UM73 19-1620 L1196M limits assumed): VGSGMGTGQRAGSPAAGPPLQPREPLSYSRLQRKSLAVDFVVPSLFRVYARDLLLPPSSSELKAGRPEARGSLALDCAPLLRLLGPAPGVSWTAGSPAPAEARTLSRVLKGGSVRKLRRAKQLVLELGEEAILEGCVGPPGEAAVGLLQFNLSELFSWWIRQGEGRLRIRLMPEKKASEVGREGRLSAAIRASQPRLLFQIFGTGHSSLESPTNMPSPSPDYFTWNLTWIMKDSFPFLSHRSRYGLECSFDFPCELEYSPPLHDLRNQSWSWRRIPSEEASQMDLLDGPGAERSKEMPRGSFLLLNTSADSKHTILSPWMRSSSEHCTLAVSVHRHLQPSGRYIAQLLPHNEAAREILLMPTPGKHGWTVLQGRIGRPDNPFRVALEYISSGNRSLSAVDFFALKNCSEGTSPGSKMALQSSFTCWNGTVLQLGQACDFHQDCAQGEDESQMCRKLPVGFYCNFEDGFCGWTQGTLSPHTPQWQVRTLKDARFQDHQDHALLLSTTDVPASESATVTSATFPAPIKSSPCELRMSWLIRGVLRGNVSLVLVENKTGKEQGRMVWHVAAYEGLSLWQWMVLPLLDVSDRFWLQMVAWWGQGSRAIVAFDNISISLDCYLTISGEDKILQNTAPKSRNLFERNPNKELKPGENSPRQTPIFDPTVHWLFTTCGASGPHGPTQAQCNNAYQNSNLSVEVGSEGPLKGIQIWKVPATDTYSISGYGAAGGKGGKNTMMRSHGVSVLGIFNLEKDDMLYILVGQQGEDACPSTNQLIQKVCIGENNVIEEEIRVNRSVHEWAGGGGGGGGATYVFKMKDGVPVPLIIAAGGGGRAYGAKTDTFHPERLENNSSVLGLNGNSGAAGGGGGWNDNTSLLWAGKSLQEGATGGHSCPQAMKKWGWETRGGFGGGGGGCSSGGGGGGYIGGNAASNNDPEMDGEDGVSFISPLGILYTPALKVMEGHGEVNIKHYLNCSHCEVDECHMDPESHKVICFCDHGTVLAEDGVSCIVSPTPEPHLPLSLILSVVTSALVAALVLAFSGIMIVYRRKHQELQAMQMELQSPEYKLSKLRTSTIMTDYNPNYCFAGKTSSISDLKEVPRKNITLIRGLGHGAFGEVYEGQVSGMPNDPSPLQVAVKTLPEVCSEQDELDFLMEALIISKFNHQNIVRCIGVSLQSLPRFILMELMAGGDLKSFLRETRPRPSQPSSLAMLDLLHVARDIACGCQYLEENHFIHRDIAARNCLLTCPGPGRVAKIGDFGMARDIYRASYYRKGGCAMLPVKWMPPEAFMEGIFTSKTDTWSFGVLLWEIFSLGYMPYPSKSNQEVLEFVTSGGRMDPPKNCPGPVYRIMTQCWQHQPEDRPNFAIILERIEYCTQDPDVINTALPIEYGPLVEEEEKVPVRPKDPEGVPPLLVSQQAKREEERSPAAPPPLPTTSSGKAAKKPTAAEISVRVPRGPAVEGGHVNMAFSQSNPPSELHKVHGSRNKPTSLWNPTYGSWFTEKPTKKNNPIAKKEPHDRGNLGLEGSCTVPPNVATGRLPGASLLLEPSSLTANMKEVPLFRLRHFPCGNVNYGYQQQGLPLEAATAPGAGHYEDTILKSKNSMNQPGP
Data set [6] in a line: Volume of distribution in Beagle dog at 1 mg/kg, iv. The format is ADME, organism-based, Canis lupus familiaris. As to conditions: in vivo.
Data set [7] deals with NCI-H2228. As to conditions: Homo sapiens.
Description: Antitumor activity against human NCI-H2228 cells xenografted in Balb/c nude mouse assessed as tumor growth inhibition at 30 mg/kg, po qd administered for two weeks measured after 1 week during compound dosing
Data set [8] is described as follows: Cmax in Balb/c nude mouse at 5 mg/kg, po. Type of data set: ADME, organism-based. The arrangement: dose 5 mg/kg, route oral. The settings on record: in vivo.
The nature of data set [9]: Clearance in Beagle dog at 1 mg/kg, iv. The format is ADME, organism-based, Canis lupus familiaris. The settings on record: in vivo.
Data set [10] is described as follows: Cmax in Sprague-Dawley rat at 5 mg/kg, po. Type of data set: ADME, organism-based. The arrangement: dose 5 mg/kg, route oral. As to conditions: in vivo.
A short description of data set [11]: Tmax in Sprague-Dawley rat at 5 mg/kg, po. The settings on record: in vivo. Type of data set: ADME, organism-based.
The nature of data set [12]: AUC(0 to infinity) in Balb/c nude mouse at 1 mg/kg, iv. The format is ADME, organism-based. The settings on record: in vivo. The arrangement: dose 1 mg/kg, route intravenous, time infinity.
The nature of data set [13]: AUC(0 to infinity) in Balb/c nude mouse at 5 mg/kg, po. The format is ADME, organism-based. As to conditions: in vivo. The arrangement: dose 5 mg/kg, time infinity, route oral.
A short description of data set [14]: AUC(0 to infinity) in Beagle dog at 3 mg/kg, po. Type of data set: ADME, organism-based, Canis lupus familiaris. The settings on record: in vivo. The arrangement: dose 3 mg/kg, route oral, time infinity.
Data set [15] concerns NCI-H2228. The settings on record: Homo sapiens. The source holds these as a separate data set.
Description: Antitumor activity against human NCI-H2228 cells xenografted in Balb/c nude mouse assessed as tumor growth inhibition at 10 mg/kg, po qd administered for two weeks
Data set [16] in a line: Volume of distribution in Sprague-Dawley rat at 1 mg/kg, iv. The settings on record: in vivo. Type of data set: ADME, organism-based.
Data set [17] can be described thus: Clearance in Sprague-Dawley rat at 1 mg/kg, iv. The format is ADME, organism-based. The settings on record: in vivo.
The test system of data set [18] is Mus musculus. Description: In vivo inhibition of ALK in human KARPAS299 cells xenografted in mouse assessed as suppression of STAT3 phosphorylation at 20 mg/kg measured after 8 hrs. The format is functional. As to conditions: KARPAS-299, 8 h.
Data set [19] is described as follows: Half life in Sprague-Dawley rat at 1 mg/kg, iv. Type of data set: ADME, organism-based. The settings on record: in vivo.
Data set [20] is described as follows: Tmax in Beagle dog at 3 mg/kg, po. The format is ADME, organism-based, Canis lupus familiaris. As to conditions: in vivo.
A short description of data set [21]: Oral bioavailability in Sprague-Dawley rat at 5 mg/kg. The format is ADME, organism-based. As to conditions: in vivo.
For data set [22], the system named is NCI-H2228. Put plainly: Antitumor activity against human NCI-H2228 cells xenografted in Balb/c nude mouse assessed as tumor growth inhibition at 30 mg/kg, po qd administered for two weeks measured on day 14 post last dose. Type of data set: functional. As to conditions: 336 h, read-out: TGI.
The nature of data set [23]: Clearance in Balb/c nude mouse at 1 mg/kg, iv. The format is ADME, organism-based. As to conditions: in vivo.
Data set [24] relates to NCI-H2228. Put plainly: Antitumor activity against human NCI-H2228 cells xenografted in Balb/c nude mouse assessed as tumor growth inhibition at 3 mg/kg, po qd administered for two weeks measured on day 14 post last dose. As to conditions: 336 h, read-out: TGI. Type of data set: functional.
Data set [25] is described as follows: Half life in Beagle dog at 1 mg/kg, iv. As to conditions: in vivo. Type of data set: ADME, organism-based, Canis lupus familiaris.
Data set [26] can be described thus: Cmax in Beagle dog at 3 mg/kg, po. The settings on record: in vivo. The format is ADME, organism-based, Canis lupus familiaris. The arrangement: dose 3 mg/kg, route oral.
A short description of data set [27]: AUC(0 to infinity) in Sprague-Dawley rat at 1 mg/kg, iv. Type of data set: ADME, organism-based. The arrangement: dose 1 mg/kg, route intravenous, time infinity. The settings on record: in vivo.
Data set [28] in a line: Tmax in Balb/c nude mouse at 5 mg/kg, po. Type of data set: ADME, organism-based. As to conditions: in vivo.
Data set [29] can be described thus: Half life in Balb/c nude mouse at 1 mg/kg, iv. The format is ADME, organism-based. As to conditions: in vivo.
Data set [30] in a line: AUC(0 to infinity) in Sprague-Dawley rat at 5 mg/kg, po. As to conditions: in vivo. Type of data set: ADME, organism-based. The arrangement: dose 5 mg/kg, route oral, time infinity.
In data set [31] the test system is Mus musculus. Description: Toxicity in Balb/c nude mouse xenografted with human NCI-H2228 cells assessed as change in body weight at 30 mg/kg, po qd administered for two weeks. The format is organism-based. The settings on record: in vivo.
Data set [32] is described as follows: Volume of distribution in Balb/c nude mouse at 1 mg/kg, iv. Type of data set: ADME, organism-based. As to conditions: in vivo.
Data set [33] is described as follows: Oral bioavailability in Beagle dog at 3 mg/kg. Type of data set: ADME, organism-based, Canis lupus familiaris. As to conditions: in vivo.
Data set [34] in a line: Oral bioavailability in Balb/c nude mouse at 5 mg/kg. Type of data set: ADME, organism-based. As to conditions: in vivo.
Data set [35] has as its system NCI-H2228. As to conditions: Homo sapiens. The source holds these as a separate data set.
Description: Antitumor activity against human NCI-H2228 cells xenografted in Balb/c nude mouse assessed as tumor growth inhibition administered as po qd for two weeks
Data set [36] is described as follows: AUC(0 to infinity) in Beagle dog at 1 mg/kg, iv. The format is ADME, organism-based, Canis lupus familiaris. The arrangement: dose 1 mg/kg, time infinity, route intravenous. As to conditions: in vivo.

ALK tyrosine kinase receptor (Homo sapiens, UniProt Q9UM73), sequence (Q9UM73 whole entry): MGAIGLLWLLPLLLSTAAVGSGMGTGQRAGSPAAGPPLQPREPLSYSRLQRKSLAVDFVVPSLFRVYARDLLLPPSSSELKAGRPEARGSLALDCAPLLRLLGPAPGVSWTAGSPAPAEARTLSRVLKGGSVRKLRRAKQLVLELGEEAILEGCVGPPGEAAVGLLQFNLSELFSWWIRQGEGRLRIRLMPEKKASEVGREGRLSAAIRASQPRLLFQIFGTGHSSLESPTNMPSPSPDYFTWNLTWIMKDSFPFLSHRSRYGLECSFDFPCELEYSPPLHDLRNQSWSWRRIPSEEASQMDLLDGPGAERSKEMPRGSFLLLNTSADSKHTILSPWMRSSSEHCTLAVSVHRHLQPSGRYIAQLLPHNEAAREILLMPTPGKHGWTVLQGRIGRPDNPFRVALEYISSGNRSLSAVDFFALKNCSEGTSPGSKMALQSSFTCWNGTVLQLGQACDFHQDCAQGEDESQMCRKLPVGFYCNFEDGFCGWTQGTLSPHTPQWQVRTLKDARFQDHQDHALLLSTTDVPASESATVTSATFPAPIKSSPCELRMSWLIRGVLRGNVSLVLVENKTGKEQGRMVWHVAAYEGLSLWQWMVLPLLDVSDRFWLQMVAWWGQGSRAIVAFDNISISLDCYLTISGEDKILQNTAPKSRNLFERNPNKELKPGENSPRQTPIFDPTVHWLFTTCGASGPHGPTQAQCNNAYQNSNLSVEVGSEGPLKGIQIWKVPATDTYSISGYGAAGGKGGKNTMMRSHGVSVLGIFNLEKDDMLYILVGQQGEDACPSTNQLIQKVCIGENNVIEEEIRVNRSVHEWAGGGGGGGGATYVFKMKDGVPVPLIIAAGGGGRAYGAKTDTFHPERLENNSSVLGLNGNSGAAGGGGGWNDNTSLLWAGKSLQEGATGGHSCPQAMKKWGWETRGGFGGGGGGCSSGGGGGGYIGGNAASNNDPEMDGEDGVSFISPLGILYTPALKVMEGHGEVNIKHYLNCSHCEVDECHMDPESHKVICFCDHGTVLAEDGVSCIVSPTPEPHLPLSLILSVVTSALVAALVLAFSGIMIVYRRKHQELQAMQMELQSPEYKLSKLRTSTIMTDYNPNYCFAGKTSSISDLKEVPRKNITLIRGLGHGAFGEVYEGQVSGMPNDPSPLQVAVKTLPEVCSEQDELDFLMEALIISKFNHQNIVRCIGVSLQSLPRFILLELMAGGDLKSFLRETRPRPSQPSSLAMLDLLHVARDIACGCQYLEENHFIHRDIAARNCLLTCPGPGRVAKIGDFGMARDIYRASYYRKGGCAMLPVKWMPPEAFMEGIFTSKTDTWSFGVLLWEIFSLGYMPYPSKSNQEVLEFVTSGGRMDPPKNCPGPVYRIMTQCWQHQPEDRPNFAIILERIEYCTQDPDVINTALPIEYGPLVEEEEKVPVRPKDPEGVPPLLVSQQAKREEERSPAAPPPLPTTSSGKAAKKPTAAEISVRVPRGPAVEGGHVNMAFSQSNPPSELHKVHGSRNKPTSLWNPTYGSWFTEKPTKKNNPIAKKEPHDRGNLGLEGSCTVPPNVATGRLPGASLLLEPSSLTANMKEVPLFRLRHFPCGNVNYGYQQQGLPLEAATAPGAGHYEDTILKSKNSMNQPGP

Consider `Cc1cc(Nc2ncc(Cl)c(Nc3cn(C)nc3S(=O)(=O)C(C)C)n2)c(OC2CC2)cc1[C@H]1CC[C@H](NC(C)C)CC1`, for which, in data set [1], the “Ratio IC50” value came out at 16. The results for the IC50 in [2] and in data set [3] were 54 nM and 5 nM, respectively.
As to `CCC(C)S(=O)(=O)c1nn(C)cc1Nc1nc(Nc2cc(C)c(C3CCNCC3)cc2OC(C)C)ncc1Cl` (stereo not drawn), the IC50 in data set [2] was determined as 224 nM; in data set [3], 21 nM.
The like results for `Cc1cc(Nc2ncc(Cl)c(Nc3cn(C4CC4)nc3S(=O)(=O)C(C)C)n2)c(OC(C)C)cc1C1CCNCC1` were, in that order, 248 nM and 37 nM.
`Cc1cc(Nc2ncc(F)c(Nc3cn(C)nc3S(=O)(=O)C(C)C)n2)c(OC2CC2)cc1C1CCN(C)CC1`: the IC50 in [2] is 81 nM.
With `COc1ccc(Cn2cc(Nc3nc(Nc4cc(C)c(C5CCNCC5)cc4OC(C)C)ncc3Cl)c(S(=O)(=O)C(C)C)n2)cc1`, the half-inhibitory concentration (IC50) is 129 nM in [4], greater than 624 nM in data set [3] and 157 nM in data set [5].
As to `Cc1cc(Nc2ncc(C#N)c(Nc3cn(C)nc3S(=O)(=O)C(C)C)n2)c(OC2CC2)cc1C1CCN(C)CC1`, in data set [2], the IC50 came to 87 nM.
On to `CC(=O)N1CCN([C@H]2CC[C@H](c3cc(OC4CC4)c(Nc4ncc(Cl)c(Nc5cn(C)nc5S(=O)(=O)C(C)C)n4)cc3C)CC2)CC1`, for which the Vd in data set [6] was found to be 6.1 L/kg; in data set [16], 8.5 L/kg; in [32], 4.6 L/kg. Besides, the TGI entry in [7] and in [15] was “Active” throughout. The Cmax in [8] is 446 ng/mL; in data set [10] it was 220 ng/mL; in data set [26] it was 355 ng/mL. Moreover, the figures for the clearance in data set [9], in data set [17] and in data set [23] were 11.1 mL/min/kg, 21.9 mL/min/kg and 37.5 mL/min/kg, respectively. Also, the Tmax in data set [11] was 6 h; in data set [20], 1 h; in data set [28], 0.5 h. Moreover, the AUC(0-inf) in data set [12] was determined as 445 ng·h/mL; in data set [13] it was 1700 ng·h/mL; in [14] it was 3340 ng·h/mL; in data set [27], 770 ng·h/mL; in data set [30], 3200 ng·h/mL; in data set [36], 1500 ng·h/mL. The inhibition in vivo at 20 mg/kg in data set [18] worked out at 79.2%. For the same compound, the half-life in data set [19] is 4.5 h; in data set [25], 6.4 h; in data set [29], 1.4 h. In addition, the bioavailability in [21] amounted to 85.3%; in data set [33], 74%; in data set [34], 76.5%. In [22], the inhibition in vivo at 30 mg/kg was found to be 140%. Moreover, in data set [1], the “Ratio IC50” value came out at 33. Further, in data set [24], the inhibition in vivo at 3 mg/kg was 50%. For the same compound, the IC50 came out at 76 nM in data set [2] and 7 nM in data set [3]. Further, the Activity entry in data set [31] was “Non-toxic”. The TGI entry in data set [35] is “Dose-dependent effect”.
With `Cc1cc(Nc2ncc(Cl)c(Nc3cn(C)nc3S(=O)(=O)C(C)C(C)C)n2)c(OC(C)C)cc1C1CCNCC1` (stereo not drawn), the IC50 in [4] is 753 nM; in [2], greater than 10000 nM; in [3], greater than 10000 nM; in data set [5] it was 3900 nM.
Regarding `Cc1cc(Nc2ncnc(Nc3cn(C)nc3S(=O)(=O)C(C)C)n2)c(OC2CC2)cc1C1CCN(C)CC1`, the results for the IC50 in data set [4] and in data set [5] were 36 nM and 111 nM, respectively.
For the compound `Cc1cc(Nc2ncc(Cl)c(Nc3cn(C)nc3S(=O)(=O)C(C)C)n2)c(OC(C)C)cc1C1CCNCC1`, the IC50 turned out to be 198 nM in data set [2] and 16 nM in data set [3].
`Cc1cc(Nc2ncc(Cl)c(Nc3cn(C)nc3C#N)n2)c(OC2CC2)cc1C1CCN(C)CC1` showed an IC50 in data set [2] of 272 nM.
Consider `CNC(=O)c1nn(C)cc1Nc1nc(Nc2cc(C)c(C3CCN(C)CC3)cc2OC2CC2)ncc1Cl`, for which the values for the IC50 in data set [4], in data set [2] and in data set [5] were 12 nM, 661 nM and 24 nM, respectively.
As to `Cc1cc(Nc2ncc(Cl)c(Nc3cn(C)nc3S(=O)(=O)N(C)C)n2)c(OC(C)C)cc1C1CCNCC1`, the IC50 in [4] is 6680 nM; in [5], greater than 10000 nM.
On to `Cc1cc(Nc2ncc(Cl)c(Nc3cn(C)nc3S(=O)(=O)C(C)C)n2)c(OC2CC2)cc1C1CCN(C)CC1`, for which the IC50 was 1 nM in data set [4] and 39 nM in data set [2].
With `Cc1cc(Nc2ncc(Cl)c(Nc3cn(C)nc3S(=O)(=O)C(C)C)n2)c(OC2CC2)cc1C1CCOCC1`, in data set [1], the “Ratio IC50” value was determined as 21. In addition, the IC50 stood at 174 nM in data set [2] and 18 nM in data set [3].
Turning to `Cc1cc(Nc2ncc(Cl)c(Nc3cn(C)nc3S(=O)(=O)CC(C)C)n2)c(OC(C)C)cc1C1CCNCC1`, the IC50 in data set [2] was found to be 193 nM; in [3], 24 nM.
As for `CCN(CC)[C@H]1CC[C@@H](c2cc(OC3CC3)c(Nc3ncc(Cl)c(Nc4cn(C)nc4S(=O)(=O)C(C)C)n3)cc2C)CC1`, the IC50 in data set [2] amounted to 60 nM.
